Reference: ChEMBL document CHEMBL5465560, “Selectivity Literature for EUbOPEN Chemogenomic Library” (2024)

Assays:
[1] = molecular target: Homeodomain-interacting protein kinase 3 (Homo sapiens, UniProt Q9H422); test: Selectivity interaction (KinomeScan (DiscoverX)) EUB0000092b HIPK3; conditions: at 10 µM
[2] = molecular target: Tyrosine-protein kinase Fyn (Homo sapiens) (UniProt P06241); test: Selectivity interaction (KinomeScan (DiscoverX)) EUB0000092b FYN; conditions: at 10 µM
hERG (KCNH2) = hERG (KCNH2) (Homo sapiens, UniProt Q12809); test: Selectivity interaction (Safety Panel 44tm (Eurofins)) EUB0000162b KCNH2; conditions: at 10 µM, read-out: % of control
[3] = molecular target: Mitogen-activated protein kinase 8 (Homo sapiens, UniProt P45983); test: Selectivity interaction (KinomeScan (DiscoverX)) EUB0000655a MAPK8; conditions: at 10 µM
Misshapen-like kinase 1 = Misshapen-like kinase 1 (Homo sapiens, UniProt Q8N4C8); test: Selectivity interaction (KinomeScan (DiscoverX)) EUB0001079a MINK1; conditions: at 1 µM
[4] = molecular target: Dual specificity protein kinase CLK3 (Homo sapiens, UniProt P49761); test: Selectivity interaction (KinomeScan (DiscoverX)) EUB0001079a CLK3; conditions: at 1 µM
[5] = molecular target: T1, Cyclin-dependent kinase 11A (Homo sapiens) (UniProt Q9UQ88); test: Selectivity interaction (KinomeScan (DiscoverX)) EUB0001079a CDK11A; conditions: at 1 µM
T1 sequence (whole entry): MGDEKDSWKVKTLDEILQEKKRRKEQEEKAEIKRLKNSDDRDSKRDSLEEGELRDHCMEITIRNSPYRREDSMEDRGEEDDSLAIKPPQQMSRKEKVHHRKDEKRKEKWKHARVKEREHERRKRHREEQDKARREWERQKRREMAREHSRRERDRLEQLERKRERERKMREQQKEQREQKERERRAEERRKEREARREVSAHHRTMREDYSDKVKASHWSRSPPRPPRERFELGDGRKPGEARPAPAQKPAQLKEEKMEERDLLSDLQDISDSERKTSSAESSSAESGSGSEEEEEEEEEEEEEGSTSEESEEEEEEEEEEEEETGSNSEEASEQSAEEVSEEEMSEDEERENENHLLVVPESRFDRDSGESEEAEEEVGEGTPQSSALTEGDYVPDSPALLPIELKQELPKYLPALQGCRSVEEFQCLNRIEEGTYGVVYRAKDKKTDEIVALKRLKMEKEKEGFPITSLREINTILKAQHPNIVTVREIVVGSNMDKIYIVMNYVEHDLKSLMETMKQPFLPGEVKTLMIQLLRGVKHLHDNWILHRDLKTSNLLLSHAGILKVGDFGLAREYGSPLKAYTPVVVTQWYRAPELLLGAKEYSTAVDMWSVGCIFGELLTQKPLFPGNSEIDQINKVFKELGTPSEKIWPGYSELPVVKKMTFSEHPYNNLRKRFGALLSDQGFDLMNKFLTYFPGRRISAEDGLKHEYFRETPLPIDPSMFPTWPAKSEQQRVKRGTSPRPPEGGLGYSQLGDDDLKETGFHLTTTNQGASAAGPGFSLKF

[6] = molecular target: T2, Ephrin type-A receptor 3 (Homo sapiens) (UniProt P29320); conditions: at 10 µM
T2 sequence (whole entry): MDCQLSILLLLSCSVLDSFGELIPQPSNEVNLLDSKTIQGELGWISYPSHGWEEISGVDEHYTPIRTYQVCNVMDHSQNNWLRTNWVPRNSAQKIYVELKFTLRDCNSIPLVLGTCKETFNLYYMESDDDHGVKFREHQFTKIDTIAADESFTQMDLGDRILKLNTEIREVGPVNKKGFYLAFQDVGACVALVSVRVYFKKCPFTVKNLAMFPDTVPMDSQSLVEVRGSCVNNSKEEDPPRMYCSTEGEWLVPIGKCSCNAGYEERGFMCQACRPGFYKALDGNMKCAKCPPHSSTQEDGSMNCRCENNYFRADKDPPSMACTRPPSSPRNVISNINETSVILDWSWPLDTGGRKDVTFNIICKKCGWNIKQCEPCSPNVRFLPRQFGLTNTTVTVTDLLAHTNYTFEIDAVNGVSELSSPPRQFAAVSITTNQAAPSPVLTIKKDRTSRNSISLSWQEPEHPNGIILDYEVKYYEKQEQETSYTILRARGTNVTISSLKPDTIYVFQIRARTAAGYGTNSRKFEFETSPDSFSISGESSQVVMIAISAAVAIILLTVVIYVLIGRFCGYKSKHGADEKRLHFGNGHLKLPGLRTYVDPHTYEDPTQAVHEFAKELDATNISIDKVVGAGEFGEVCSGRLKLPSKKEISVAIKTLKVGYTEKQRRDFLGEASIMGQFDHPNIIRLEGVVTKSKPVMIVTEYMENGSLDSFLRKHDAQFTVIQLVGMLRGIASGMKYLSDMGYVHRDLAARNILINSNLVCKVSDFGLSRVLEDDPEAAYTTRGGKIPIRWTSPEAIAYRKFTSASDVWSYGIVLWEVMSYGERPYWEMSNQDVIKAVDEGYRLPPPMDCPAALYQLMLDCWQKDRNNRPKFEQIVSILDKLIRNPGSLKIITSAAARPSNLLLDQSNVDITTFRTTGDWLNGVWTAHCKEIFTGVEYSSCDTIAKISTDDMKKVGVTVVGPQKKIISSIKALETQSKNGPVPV

[7] = molecular target: Tyrosine-protein kinase Fes/Fps (Homo sapiens) (UniProt P07332); test: Selectivity interaction (Kinase panel (Invitrogen)) EUB0000639a FES; conditions: at 200 nM
[8] = molecular target: Ribosomal protein S6 kinase alpha-4 (Homo sapiens) (UniProt O75676); test: Selectivity interaction (KinomeScan (DiscoverX)) EUB0000607a RPS6KA4; conditions: at 10 µM
[9] = molecular target: cAMP-dependent protein kinase catalytic subunit beta (Homo sapiens) (UniProt P22694); conditions: at 10 µM
[10] = molecular target: Activin receptor type-2B (Homo sapiens) (UniProt Q13705); test: Selectivity interaction (KinomeScan (DiscoverX)) EUB0000045b ACVR2B
[11] = molecular target: Tyrosine-protein kinase Srms (Homo sapiens) (UniProt Q9H3Y6); test: Selectivity interaction (KinomeScan (DiscoverX)) EUB0000618a SRMS; conditions: at 10 µM
[12] = molecular target: Ribosomal protein S6 kinase alpha-2 (Homo sapiens) (UniProt Q15349); test: Selectivity interaction (KinomeScan (DiscoverX)) EUB0000618a RPS6KA2; conditions: at 10 µM
[13] = tested on: Tyrosine-protein kinase ABL1 (Homo sapiens), P00519 [F317I]; test: Selectivity interaction (Ambit KINOMEscan and KiNATiv profiling in Jurkat cells) EUB0000090b ABL1; assay type: cell-based; conditions: at 1 µM
[14] = molecular target: Protein kinase C alpha type (Homo sapiens, UniProt P17252); test: Selectivity interaction (Kinase screening (Upstate/Millipore)) EUB0000604a PRKCA
[15] = molecular target: Mitogen-activated protein kinase kinase kinase 20 (Homo sapiens) (UniProt Q9NYL2); test: Selectivity interaction (KinomeScan (DiscoverX)) EUB0001619a MAP3K20; conditions: at 1 µM
[16] = molecular target: 5'-AMP-activated protein kinase catalytic subunit alpha-2 (Homo sapiens) (UniProt P54646); test: Selectivity interaction (KinomeScan (DiscoverX)) EUB0001619a PRKAA2; conditions: at 1 µM

Activin receptor type-2B (Homo sapiens), sequence (Q13705 whole entry): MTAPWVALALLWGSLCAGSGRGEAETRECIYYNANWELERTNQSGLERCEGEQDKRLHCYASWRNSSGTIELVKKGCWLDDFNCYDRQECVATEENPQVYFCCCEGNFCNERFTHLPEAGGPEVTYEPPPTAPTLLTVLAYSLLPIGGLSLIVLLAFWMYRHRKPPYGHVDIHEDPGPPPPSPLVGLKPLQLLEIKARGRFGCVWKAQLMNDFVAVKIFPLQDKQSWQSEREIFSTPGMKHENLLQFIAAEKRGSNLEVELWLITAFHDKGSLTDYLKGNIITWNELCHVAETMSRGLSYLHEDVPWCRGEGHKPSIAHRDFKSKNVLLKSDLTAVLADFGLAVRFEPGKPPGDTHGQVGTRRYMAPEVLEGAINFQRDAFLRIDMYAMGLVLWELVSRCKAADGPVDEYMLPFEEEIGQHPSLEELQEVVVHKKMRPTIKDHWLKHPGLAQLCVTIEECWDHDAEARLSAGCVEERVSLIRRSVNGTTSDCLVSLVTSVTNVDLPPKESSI
Tyrosine-protein kinase Fes/Fps (Homo sapiens), sequence (P07332 whole entry): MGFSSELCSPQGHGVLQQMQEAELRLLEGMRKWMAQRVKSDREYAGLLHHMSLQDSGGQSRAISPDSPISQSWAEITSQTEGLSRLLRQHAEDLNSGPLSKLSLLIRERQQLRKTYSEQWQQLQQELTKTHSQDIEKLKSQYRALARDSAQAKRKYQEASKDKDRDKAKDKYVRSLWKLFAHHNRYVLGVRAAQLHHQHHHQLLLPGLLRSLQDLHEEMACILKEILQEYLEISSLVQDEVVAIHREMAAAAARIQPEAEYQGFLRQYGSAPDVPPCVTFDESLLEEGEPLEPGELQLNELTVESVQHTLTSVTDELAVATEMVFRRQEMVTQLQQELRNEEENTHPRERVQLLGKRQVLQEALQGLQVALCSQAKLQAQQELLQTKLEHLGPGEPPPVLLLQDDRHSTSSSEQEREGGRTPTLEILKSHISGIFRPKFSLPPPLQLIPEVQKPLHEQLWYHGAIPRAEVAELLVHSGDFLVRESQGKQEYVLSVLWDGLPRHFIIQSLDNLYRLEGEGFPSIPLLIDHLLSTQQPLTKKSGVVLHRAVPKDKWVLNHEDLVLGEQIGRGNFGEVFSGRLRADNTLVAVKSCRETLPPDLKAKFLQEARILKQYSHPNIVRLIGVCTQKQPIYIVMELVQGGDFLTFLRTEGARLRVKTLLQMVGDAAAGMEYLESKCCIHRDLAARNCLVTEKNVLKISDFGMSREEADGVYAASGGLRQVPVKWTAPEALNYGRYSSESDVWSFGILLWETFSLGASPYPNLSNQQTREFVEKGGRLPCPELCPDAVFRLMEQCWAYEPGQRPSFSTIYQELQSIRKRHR
Dual specificity protein kinase CLK3, sequence (P49761 whole entry, looked up): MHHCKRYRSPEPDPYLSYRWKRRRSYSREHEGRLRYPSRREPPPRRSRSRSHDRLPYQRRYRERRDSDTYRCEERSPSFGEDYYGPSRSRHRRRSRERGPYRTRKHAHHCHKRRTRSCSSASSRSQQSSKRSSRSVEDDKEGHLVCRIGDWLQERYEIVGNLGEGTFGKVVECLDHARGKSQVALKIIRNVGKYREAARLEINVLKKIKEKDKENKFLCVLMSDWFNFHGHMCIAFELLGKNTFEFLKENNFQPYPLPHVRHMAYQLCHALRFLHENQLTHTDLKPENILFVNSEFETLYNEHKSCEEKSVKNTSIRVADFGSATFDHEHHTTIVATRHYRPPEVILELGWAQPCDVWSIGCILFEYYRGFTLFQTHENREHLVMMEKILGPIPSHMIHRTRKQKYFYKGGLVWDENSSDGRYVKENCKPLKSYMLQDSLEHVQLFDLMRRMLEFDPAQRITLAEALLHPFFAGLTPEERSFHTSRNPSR
Ribosomal protein S6 kinase alpha-4 (Homo sapiens), sequence (O75676 whole entry, looked up): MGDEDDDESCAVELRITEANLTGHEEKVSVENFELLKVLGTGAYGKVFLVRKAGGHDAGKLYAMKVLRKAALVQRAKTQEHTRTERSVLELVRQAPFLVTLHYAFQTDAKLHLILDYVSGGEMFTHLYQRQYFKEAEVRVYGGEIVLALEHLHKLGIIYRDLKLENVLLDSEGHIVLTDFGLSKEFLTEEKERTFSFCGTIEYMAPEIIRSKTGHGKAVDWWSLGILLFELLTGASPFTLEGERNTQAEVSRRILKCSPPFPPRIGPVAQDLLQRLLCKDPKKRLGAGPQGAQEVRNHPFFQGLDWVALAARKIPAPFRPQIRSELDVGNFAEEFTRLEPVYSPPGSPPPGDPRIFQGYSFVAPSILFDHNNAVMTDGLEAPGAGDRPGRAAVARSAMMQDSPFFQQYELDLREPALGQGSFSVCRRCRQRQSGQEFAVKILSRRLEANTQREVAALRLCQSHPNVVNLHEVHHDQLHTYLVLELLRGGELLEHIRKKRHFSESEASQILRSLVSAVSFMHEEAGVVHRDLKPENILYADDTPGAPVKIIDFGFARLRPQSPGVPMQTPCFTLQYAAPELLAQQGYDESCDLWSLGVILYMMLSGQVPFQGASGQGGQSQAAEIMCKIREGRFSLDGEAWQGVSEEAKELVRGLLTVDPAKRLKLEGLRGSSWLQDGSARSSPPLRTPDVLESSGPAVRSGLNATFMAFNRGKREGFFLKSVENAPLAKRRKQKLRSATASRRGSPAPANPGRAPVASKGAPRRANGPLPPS
Misshapen-like kinase 1, sequence (Q8N4C8 whole entry, looked up): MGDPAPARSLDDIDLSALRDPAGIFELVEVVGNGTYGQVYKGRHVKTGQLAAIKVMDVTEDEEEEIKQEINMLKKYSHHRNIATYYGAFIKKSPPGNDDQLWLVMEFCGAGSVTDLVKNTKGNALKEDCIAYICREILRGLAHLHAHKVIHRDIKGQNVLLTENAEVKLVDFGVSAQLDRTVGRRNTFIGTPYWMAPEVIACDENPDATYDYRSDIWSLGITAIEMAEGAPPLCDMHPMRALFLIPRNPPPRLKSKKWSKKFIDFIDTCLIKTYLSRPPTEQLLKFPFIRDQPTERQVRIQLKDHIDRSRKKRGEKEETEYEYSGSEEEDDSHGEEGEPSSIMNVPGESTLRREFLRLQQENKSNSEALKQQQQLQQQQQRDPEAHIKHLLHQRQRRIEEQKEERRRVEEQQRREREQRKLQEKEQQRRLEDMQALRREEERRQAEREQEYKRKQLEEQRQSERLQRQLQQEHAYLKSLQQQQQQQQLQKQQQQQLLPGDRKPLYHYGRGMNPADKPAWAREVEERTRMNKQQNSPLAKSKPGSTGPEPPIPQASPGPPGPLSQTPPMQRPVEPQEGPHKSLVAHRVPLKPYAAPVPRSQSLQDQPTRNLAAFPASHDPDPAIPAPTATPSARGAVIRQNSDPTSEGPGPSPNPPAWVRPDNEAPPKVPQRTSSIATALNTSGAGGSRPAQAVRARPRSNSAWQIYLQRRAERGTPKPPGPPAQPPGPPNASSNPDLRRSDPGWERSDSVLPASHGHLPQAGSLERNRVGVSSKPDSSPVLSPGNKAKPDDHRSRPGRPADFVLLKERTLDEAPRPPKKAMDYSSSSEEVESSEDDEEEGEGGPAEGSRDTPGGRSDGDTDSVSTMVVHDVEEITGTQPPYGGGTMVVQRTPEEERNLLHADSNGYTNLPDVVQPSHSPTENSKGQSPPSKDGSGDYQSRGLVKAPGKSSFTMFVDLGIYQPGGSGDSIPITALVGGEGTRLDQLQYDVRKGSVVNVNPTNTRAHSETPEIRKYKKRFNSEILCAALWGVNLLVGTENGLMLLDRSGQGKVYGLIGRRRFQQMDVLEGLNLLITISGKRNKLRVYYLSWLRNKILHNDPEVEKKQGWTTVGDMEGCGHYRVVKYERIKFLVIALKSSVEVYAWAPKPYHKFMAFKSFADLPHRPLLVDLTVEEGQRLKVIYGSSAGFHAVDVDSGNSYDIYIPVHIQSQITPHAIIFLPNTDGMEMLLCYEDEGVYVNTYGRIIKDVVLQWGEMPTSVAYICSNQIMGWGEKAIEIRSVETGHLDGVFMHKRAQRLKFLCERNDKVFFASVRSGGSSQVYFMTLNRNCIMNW
Mitogen-activated protein kinase 8, sequence (P45983 whole entry): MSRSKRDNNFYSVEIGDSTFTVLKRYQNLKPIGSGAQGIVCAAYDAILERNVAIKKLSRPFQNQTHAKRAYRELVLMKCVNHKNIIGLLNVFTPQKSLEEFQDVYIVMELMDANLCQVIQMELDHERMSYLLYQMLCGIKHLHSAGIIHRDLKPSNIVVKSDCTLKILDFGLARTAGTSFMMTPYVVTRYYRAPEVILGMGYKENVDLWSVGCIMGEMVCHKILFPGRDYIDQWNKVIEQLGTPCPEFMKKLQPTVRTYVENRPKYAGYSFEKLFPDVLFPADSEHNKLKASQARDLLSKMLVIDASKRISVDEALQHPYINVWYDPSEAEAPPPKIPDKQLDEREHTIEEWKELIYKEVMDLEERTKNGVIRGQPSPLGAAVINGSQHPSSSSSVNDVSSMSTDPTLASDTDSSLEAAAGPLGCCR
Tyrosine-protein kinase Srms (Homo sapiens), sequence (Q9H3Y6 whole entry): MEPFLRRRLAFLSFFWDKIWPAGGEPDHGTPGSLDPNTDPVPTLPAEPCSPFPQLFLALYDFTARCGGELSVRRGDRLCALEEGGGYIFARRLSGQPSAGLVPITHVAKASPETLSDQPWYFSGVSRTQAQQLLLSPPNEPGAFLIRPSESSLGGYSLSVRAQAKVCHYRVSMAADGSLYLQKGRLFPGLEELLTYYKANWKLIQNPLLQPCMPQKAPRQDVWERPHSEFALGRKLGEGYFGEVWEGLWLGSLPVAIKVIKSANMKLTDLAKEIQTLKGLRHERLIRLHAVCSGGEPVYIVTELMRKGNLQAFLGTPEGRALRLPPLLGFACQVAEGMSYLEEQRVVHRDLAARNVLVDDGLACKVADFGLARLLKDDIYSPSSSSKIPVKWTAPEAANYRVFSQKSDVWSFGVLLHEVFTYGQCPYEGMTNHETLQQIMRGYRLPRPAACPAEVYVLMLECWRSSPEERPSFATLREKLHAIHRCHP

Compound: CCC(=O)N1CCN(c2ccc(-n3c(=O)ccc4cnc5ccc(-c6cnc7ccccc7c6)cc5c43)cc2C(F)(F)F)CC1
- % of control [1]: 86%
- % of control [2]: 49%

Compound: CN(C)C(=O)Cn1cc(-c2ccc(-c3cncc4ccccc34)cc2)cn1
- activity (hERG (KCNH2)): 85%

Compound: CN(C)CCOc1ccc(-c2nc(-c3ccncc3)c(-c3ccc4c(c3)CC/C4=N\O)[nH]2)cc1
- % of control [3]: 92%

Compound: Nc1cnc(N2CCc3cc(S(=O)(=O)Nc4c(F)cc(Cl)cc4F)cc(N4CCCC4=O)c32)nc1 [TP-020n]
- % of control (Misshapen-like kinase 1): 100%
- % of control [4]: 74%
- % of control [5]: 89%

Compound: Cc1cc([C@@H](C)Nc2ccccc2C(=O)O)c2nc(N3CCOCC3)cc(=O)n2c1 [AZD-6482]
- % of control [6]: 79%

Compound: CC[C@@H]1[C@H](F)C(=O)N[C@@H]1COc1nccc2cc(C(N)=O)c(OC)cc12 [ZIMLOVISERTIB]
- % of inhibition [7]: 1.51%

Compound: CNC(=O)Nc1ccc(-c2nc(N3CC4CCC(C3)O4)c3cnn(C4CCC5(CC4)OCCO5)c3n2)cc1
- % of control [8]: 90%

Compound: COCC(=O)NC/C=C/c1ccc2ncnc(Nc3ccc(Oc4ccc(C)nc4)c(C)c3)c2c1 [CP-724714]
- % of control [9]: 100%

Compound: C=CC(=O)Nc1cc(-n2c(=O)ccc3cnc4ccc(-c5ccc(NS(C)(=O)=O)cc5)cc4c32)ccc1C
- % of control ([10]; at 1 µM): 100%
- % of control ([10]; at 10 µM): 84%

Compound: O[C@H]1CC[C@H](Nc2ncc3nc(Nc4c(F)cc(F)cc4F)n([C@H]4CCOC4)c3n2)CC1
- % of control [11]: 89%
- % of control [12]: 78%

Compound: CN(C)C/C=C/C(=O)Nc1ccc(C(=O)N2CCCC(Nc3ncc(Cl)c(-c4c[nH]c5ccccc45)n3)C2)cc1 (centres undefined)
- % of control [13]: 100%

Compound: Cc1cnc(Nc2ccc(F)cc2Cl)nc1-c1c[nH]c(C(=O)N[C@H](CO)c2cccc(Cl)c2)c1
- % of inhibition [14]: 12%

Compound: N#Cc1cccc(-c2c[nH]c3ncnc(N4CCOCC4)c23)c1
- % of control [15]: 86%
- % of control [16]: 22%
